# Assay results reported in publication PMC11528066, “Noninvasive Monitoring of Programmed Death-Ligand 2 Expression with Positron Emission Tomography using ^68Ga-labeled Peptide Antagonist in Preclinical and Exploratory Human Studies” (Research, 2024).
# Peptide text beside a SMILES is read from it. * marks the point of attachment. NOTA = O=C(O)CN1CCN(CC(=O)O)CCN(CC(=O)*)CC1; AEEEA = NCCOCCOCCOCC(=O)O
# Key:
# patients with NSCLC = assay: Clinical response to anti-PD-1 therapy in NSCLC patients; type: in vivo, human
# From the text: We evaluated the clinical relevance between the expression of PD-L2 in tumor tissues and anti-PD-1 immunotherapy (pembrolizumab) in 49 patients with NSCLC, as assessed by PD-L2 IHC score data from these patients. The median age was 60 years (range, 41 to 86 y), male (81.6%). About 57.1% of the patients had distant metastasis (M1 stage), and 42.9% of the patients had received ≥2 other treatment before anti-PD-1 therapy (Table). […] patients were classified as PD-L1-positive expression, […] as PD-L2-positive expression, 21 (42.9%) as PD-L1 negative, and 27 (55.1%) as PD-L2 negative (Fig. 1A). […] (Fig. 1A). […] (Fig. 1A). In the 49 patients, PD-L2-positive was identified as a statistically significant predictor of better PFS (P < 0.05) (Fig. 1B), but it was not a statistically significant predictor of relapse-free survival (Fig. 1C).
# [1] = Pharmacokinetics in blood; type: in vivo; conditions: healthy BALB/C mouse, i.v. 5.55 MBq, noncompartmental model, Phoenix WinNonlin 8.1
# Procedure: (§1) The static PET/CT imaging in A549 and A549-PD-L2 xenograft models after injection of 5.55 to 7.4 MBq (150 to 200 μCi) of [^68Ga]Ga-HN11-1 or [^68Ga]Ga-HN11-2 were acquired at 60 min. In the [^68Ga]Ga-HN11-1 + block or [^68Ga]Ga-HN11-2 + block groups, the xenograft models underwent pretreatment via intravenous injection of HN11-1 or HN-2 (10 mg/kg) before PET/CT imaging. Then, ROIs were delineated for each group. After imaging, tumor tissues from both the A549 and A459-PD-L2 xenograft tumors were extracted, and the PD-L2 expression was tested by IHC. For the pharmacokinetics study, healthy BALB/C mouse received an intravenous injection of 5.55 MBq (150 μCi) of [^68Ga]Ga-HN11-1 and [^68Ga]Ga-HN11-2. Measure the activity of blood samples (%ID/g, mean ± SD) at the corresponding time points, and the time-activity curve was plotted. Subsequently, pharmacokinetic parameters were tested using the noncompartmental model in Phoenix WinNonlin 8.1 software (Certara, USA).
# [2] = In vitro stability in serum (radio-HPLC); type: in vitro ADME; conditions: room temperature, over 4 h (0.5, 1, 2, 4 h), 3.74 MBq, read-out: in vitro stability in serum (radiochemical purity)
# Procedure: (§2) The in vitro stability of [^68Ga]Ga-HN11-1 and [^68Ga]Ga-HN11-2 (3.74 MBq) in saline and serum was tested by radio-HPLC analysis of its radiochemical purity after incubation at room temperature for 0.5 , 1 , 2 and 4 h.
# [3] = Partition coefficient (log P), 1-octanol/PBS; type: physicochemical; conditions: shake-flask 3 mL 1-octanol / 3 mL PBS pH 7.4, vortex 10 min, centrifugation 10,000 rpm 10 min, γ-counter, mean ± SD, n = 5
# Procedure: The partition coefficients were assessed using the method described previously. [^68Ga]Ga-HN11-1 and [^68Ga]Ga-HN11-2 was respectively introduced into a mixture comprising 3 mL of 1-octanol and 3 mL of phosphate-buffered saline (PBS) with a pH of 7.4. Following vortexing for 10 minutes and subsequent centrifugation at 10,000 rpm for 10 minutes, samples were taken from both layers and counted using a γ-counter. The log P was determined using the formula: log P = log([M]oct/[M]aq). All measurements were conducted using 5 independent samples and are presented as mean ± standard deviation (SD).
# [4] = test system: A549-PD-L2 xenograft models; assay: Static PET/CT imaging with blocking; type: in vivo, BALB/C nude mice; conditions: 60 min, pretreatment i.v. with excess HN11-1 / HN11-2 (10 mg/kg), n = 3
# Procedure: as §1
# [5] = In vitro stability in saline (radio-HPLC); type: physicochemical; conditions: room temperature, over 4 h (0.5, 1, 2, 4 h), 3.74 MBq
# Procedure: as §2
# A549-PD-L2 cell lines = assay: Cell uptake assay; type: cell-based; conditions: A549-PD-L2 cells, n = 5; for cell uptake rate: mean ± SD
# Procedure: Cell uptake assays were conducted to measure the uptake of [^68Ga]Ga-HN11-1 and [^68Ga]Ga-HN11-2 in A549 and A459-PD-L2 cell lines following incubation periods of 15, 30, 60, and 90 min. Blocking studies were performed by coincubating cells with an excess of precursor (HN11-1 / HN11-2), and then the cell uptakes of [^68Ga]Ga-HN11-1 and [^68Ga]Ga-HN11-2 were performed in A459-PD-L2 cell lines after 60 min of incubation. The experiment details are provided in the SI.
# All tumor cells (1 × 10^6 per well) were seeded in two 24 - well plates, incubated for 24 h and then added with […] of [^68Ga]Ga-HN11-1 or [^68Ga]Ga-HN11-2 per well. After 15, 30, 60 and 90 min of uptake, the cells were separated from the medium, washed with 500 μL of cold PBS for three times and dissolved with 1 M NaOH. At different time points, these cells were collected and counted by using a γ-counter (WIZARD 2480, Pekin Elmer). For in vitro blocking experiments, cells were co-incubated with 10 μg of cold HN11-1 or HN11-2 precursor. After incubation, the cells were washed, collected and measured with a γ-counter, either. The IC50 values of [^68Ga]Ga-HN11-1 or [^68Ga]Ga-HN11-2 were determined using GraphPad Prism 8.0.2 software, respectively.
# [6] = test system: A549-PD-L2 tumor xenograft models; assay: Dynamic micro-PET imaging in A549-PD-L2 xenografts; type: in vivo, BALB/C nude mice; conditions: n = 3
# Procedure: Micro-PET imaging was conducted using an Inveon PET scanner (Siemens, Germany). Dynamic PET examine were acquired over the first 60 min following the simultaneous injection of 7.4 to 9.25 MBq (200 to 250 μCi) of [^68Ga]Ga-HN11-1 and [^68Ga]Ga-HN11-2. After reconstructing the images and delineating the regions of interest (ROIs), time-radioactivity curves were plotted to obtain the Tumor/Muscle (T/M) ratios. %ID/g represents the percentage of the injected dose of the radiotracer that accumulates in a specific tissue per gram of tissue weight. For the biodistribution study, the xenograft models received an intravenous injection of 3.7 to 5.5 MBq (100 to 150 μCi) of [^68Ga]Ga-HN11-1. After the designated period (10, 30, 60, and 90 min), the mice were euthanized, and important tissues and organs were dissected and collected. The samples were counted using the γ-counter for determining the %ID/g, presented as mean ± standard deviation (SD).
# A549 cell lines were provided by the China Center for Type Culture Collection (CCTCC) and cultured in RPMI-1640 medium supplemented with 10 % fetal bovine serum and 100 U/mL penicillin-streptomycin. The lentivirus system was implemented to introduce PD-L2 (PDCD1LG2) over-expressed cDNA into the A549 cells. The viral vectors were produced in 293T cells and co-transfected with the psAX2, pMD2G and PD-L2 plasmids. A549 cells transduced with the vectors were selectively grown in 1.6 μg/mL puromycin. Transfection efficiency was identified by WB and real-time quantitative PCR. All the cells were cultured in an incubator at 37° C with 5 % CO2 atmosphere. A549 and A549-PD-L2 cells (5 × 10^6, 200 μL)were subcutaneously implanted into the right shoulder of BALB/C nude mice (male, 4-6 weeks), respectively. When the tumors reached to 5 - 8 mm in diameter, the mice were subjected to in vivo and ex vivo studies. All the mice were purchased from the Laboratory Animal Center of Central South University.
# [7] = [^18F]F-FDG PET/CT imaging in cancer patients; type: in vivo, human
# Procedure: The program content was explained to all healthy volunteers and cancer patients, and written informed consent was obtained. Whole-body dynamic imaging was conducted for 60 min using a PET/CT 690 Elite scanner (GE Discovery) immediately after intravenous injection of [^68Ga]Ga-HN11-1 (3.1 to 4.9 MBq/kg). A static body scan was performed 15 to 45 min after injection. All cancer patients underwent [^18F]F-FDG and [^68Ga]Ga-HN11-1 PET/CT imaging within 5 d. Two nuclear medicine physicians reconstructed and reviewed the images on GE aw 4.6 workstations and reached a consensus. They delineated the ROIs and measured the values of maximum standard uptake and average standard uptake (SUVmax and SUVmean). The biological distribution of [^68Ga]Ga-HN11-1 in healthy volunteers was determined by SUVmax and SUVmean. The OLINDA/EXM software (version 1.0, Hermes Medical Solutions AB) was used to estimate the human radiation dose based on the SUVmean of each organ.
# [8] = Adult, PET/CT; cited from earlier work
# From the text: The kidney received the highest doses (9.83 × 10^−2 ± 2.10 × 10^−2 mSv/MBq).
compound,measurement,setting,value
pembrolizumab: anti-PD-1 immunotherapy,response rate,"patients with NSCLC; PD-L1-positive alone, 95% CI 63.4 to 93.8",78.6%
same,objective response rate,"patients with NSCLC; PD-L1-positive but PD-L2-negative, 95% CI 56.3 to 96.6",76.5%
same,objective response rate,"patients with NSCLC; PD-L1-positive while PD-L2 unknown, 95% CI 63.4 to 93.8",78.6%
same,response rate,"patients with NSCLC; PD-L2-positive alone, 95% CI 59.8 to 94.8",77.3%
same,objective response rate,"patients with NSCLC; both PD-L1- and PD-L2-positive, 95% CI 59.0 to 100.0",81.8%
same,response rate,"patients with NSCLC; both PD-L1 and PD-L2 negative group, 95% CI 29.6 to 90.4",60.0%
"CC[C@H](C)[C@H](NC(=O)[C@H](CCCNC(=N)N)NC(=O)[C@H](C)NC(=O)[C@H](CCCCN)NC(=O)[C@@H](NC(=O)[C@H](CCCNC(=N)N)NC(=O)[C@H](CCCNC(=N)N)NC(=O)[C@@H](NC(=O)[C@H](Cc1c[nH]cn1)NC(=O)COCCOCCOCCNC(=O)CN1CCN(CC(=O)O)CCN(CC(=O)O)CC1)C(C)C)[C@@H](C)O)C(=O)N[C@@H](CCCNC(=N)N)C(=O)N[C@@H](CC(N)=O)C(=O)O [[^68Ga]Ga-HN11-2, metal not drawn] ({NOTA-AEEEA}-HVRRTKARIRN-OH)",half-life in blood,[1],22.66 min
same,remaining at 4 h,[2],> 95%
same,logD,[3],-0.27 ± 0.0018
same,tumor uptake after blocking,[4],0.82 ± 0.04 %ID/g
same,in vitro stability in saline (radiochemical purity),[5],> 95%
same,cell uptake rate,"A549-PD-L2 cell lines; 30 min incubation, γ-counter",1.55 ± 0.08%
same,"cell uptake, block group","A549-PD-L2 cell lines; 60 min, with excess (10 μg) of cold HN11-1 / HN11-2 precursor",0.61 ± 0.03%
same,cell uptake rate,A549-PD-L2 cell lines; 60 min incubation,2.47 ± 0.13%
same,tumor uptake,[6]; 10 min after injection,1.71 ± 0.14 %ID/g
same,tumor uptake,[6]; 20 min after injection,2.17 ± 0.12 %ID/g
same,tumor uptake,[6]; 30 min after injection,2.29 ± 0.17 %ID/g
same,tumor uptake,[6]; 40 min after injection,2.10 ± 0.03 %ID/g
same,tumor uptake,[6]; 50 min after injection,1.97 ± 0.07 %ID/g
same,tumor uptake,[6]; 60 min after injection,1.82 ± 0.06 %ID/g
OC[C@H]1O[C@@H](O)[C@H]([18F])[C@@H](O)[C@@H]1O [[^18F]F-FDG],FDG SUVmax,"[7]; patient 1, NSCLC, lung",15.5
same,FDG SUVmax,"[7]; patient 2, NSCLC, lung",25.9
same,FDG SUVmax,"[7]; patient 3, rHNSCC, buccal",13.7
same,FDG SUVmax,"[7]; patient 4, rHNSCC, buccal",4.0
same,FDG SUVmax,"[7]; patient 5, mHNSCC, tongue",4.0
same,FDG SUVmax,"[7]; patient 6, mHNSCC, laryngeal",3.7
same,effective dose,[8],1.9 × 10^−2 mSv/MBq
